The test has as its target T1, full length active recombinant SYK enzyme (Homo sapiens, UniProt P43405).
T1 construct: full length active recombinant SYK enzyme (Millipore, Calif.); purchased Millipore
Description: Inhibition of Syk tyrosine phosphorylation activity (LANCE TR-FRET kinase assay). The class given is biochemical. The settings on record: activity in the Syk assays, class symbols. The procedure, abridged: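 1 nM full-length active recombinant SYK phosphorylated 550 nM biotin-DEEDYESP-OH with 100 μM ATP in 50 mM Tris pH 7.5, 5 mM MgCl2, 1 mM DTT and 3% DMSO for 1 h at room temperature. After EDTA quench, Eu-anti-phosphotyrosine/SA-APC TR-FRET was read after 1 h. IC50s came from non-linear regression.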
In general terms: In TR-FRET formats the signal depends on donor and acceptor labels being close together.

Structures are written as SMILES. pIC50: −log10 of the molar value.

As usually defined, the pIC50 is the IC50 on a negative log10 scale, so that one unit is a factor of ten. Turning to `CN(C)C(=O)c1ccc(Nc2nc(N[C@@H]3CCCC[C@@H]3N)cnc2C(N)=O)cc1` [Example 277, 5-((1R,2S)-2-aminocyclohexylamino)-3-(4-(dimethylcarbamoyl)phenylamino)pyrazine-2-carboxamide], the pIC50 is 7.00 to 8.00.

For `Cc1cc(Nc2nc(N[C@@H](C(N)=O)c3ccccc3)cnc2C(N)=O)sn1` [Example 395, (R)-5-(2-amino-2-oxo-1-phenylethylamino)-3-(3-methylisothiazol-5-ylamino)pyrazine-2-carboxamide], the negative logarithm of the IC50 (pIC50) was 8.00 to 9.00.

Regarding `CC(C)[C@@H](Nc1cnc(C(N)=O)c(Nc2ccc(CN3CCOCC3)cc2)n1)C(N)=O` [Example 148, (R)-5-(1-amino-3-methyl-1-oxobutan-2-ylamino)-3-(4-(morpholinomethyl)phenylamino)pyrazine-2-carboxamide], the negative logarithm of the IC50 (pIC50) is 6.00 to 7.00.

For `CN1C(=O)Cc2cc(Nc3nc(N[C@@H]4CCCC[C@@H]4N)cnc3C(N)=O)ccc21` [Example 324, 5-((1R,2S)-2-aminocyclohexylamino)-3-(1-methyl-2-oxoindolin-5-ylamino)pyrazine-2-carboxamide], the negative-log IC50 (pIC50) is 8.00 to 9.00.

For `NC(=O)c1ncc(N[C@@H]2CCCC[C@@H]2N)nc1Nc1cccc(-c2ncco2)c1` [Example 444, 5-(((1R,2S)-2-aminocyclohexyl)amino)-3-((3-(oxazol-2-yl)phenyl)amino)pyrazine-2-carboxamide], the pIC50 is more than 9.00.

Regarding `NC(=O)c1ncc(N[C@H](Cc2cccs2)C(N)=O)nc1Nc1cnc2cccnc2c1` [Example 409, (R)-3-(1,5-naphthyridin-3-ylamino)-5-(1-amino-1-oxo-3-(thiophen-2-yl)propan-2-ylamino)pyrazine-2-carboxamide], the pIC50 was 8.00 to 9.00.

Take `CC(C)[C@@H](Nc1cnc(C(N)=O)c(Nc2ccc(S(C)(=O)=O)cc2)n1)C(N)=O` [Example 160, (R)-5-(1-amino-3-methyl-1-oxobutan-2-ylamino)-3-(4-(methylsulfonyl)phenylamino)pyrazine-2-carboxamide]: the pIC50 is 7.00 to 8.00.

Regarding `Cc1cc(Nc2nc(N[C@H](CC[S+](C)[O-])C(N)=O)cnc2C(N)=O)sn1` (stereo partly drawn) [Example 399, 5-((2R)-1-amino-4-(methylsulfinyl)-1-oxobutan-2-ylamino)-3-(3-methylisothiazol-5-ylamino)pyrazine-2-carboxamide], the pIC50 was 6.00 to 7.00.

Take `NC(=O)c1ncc(N[C@H]2CN[C@@H](CO)C2)nc1Nc1cnc2ccc(F)cc2c1` [Example 140, 3-((6-fluoroquinolin-3-yl)amino)-5-(((3R,5R)-5-(hydroxymethyl)pyrrolidin-3-yl)amino)pyrazine-2-carboxamide]: the pIC50 was 8.00 to 9.00.

With `NC(=O)c1ncc(N[C@@H]2CCCC[C@@H]2N)nc1Nc1cccc2ncccc12` [Example 436, 5-(((1R,2S)-2-aminocyclohexyl)amino)-3-(quinolin-5-ylamino)pyrazine-2-carboxamide], the pIC50 is more than 9.00.

`CC(C)C[C@@H](Nc1cnc(C(N)=O)c(Nc2ccc(C(=O)O)nc2)n1)C(N)=O` [Example 294, (R)-5-(6-(1-amino-4-methyl-1-oxopentan-2-ylamino)-3-carbamoylpyrazin-2-ylamino)picolinic acid]: the negative-log IC50 (pIC50) was 6.00 to 7.00.

Turning to `COc1ccc(Nc2nc(N[C@@H]3CCCC(F)(F)[C@@H]3N)cnc2C(N)=O)cc1` [Example 24, 5-((1R,2R)-2-amino-3,3-difluorocyclohexylamino)-3-(4-methoxyphenylamino)pyrazine-2-carboxamide], the negative-log IC50 (pIC50) was 7.00 to 8.00.

For `NC(=O)c1ncc(N[C@@H]2CCCC(F)(F)[C@@H]2N)nc1Nc1ccc2cccnc2c1` [Example 384, 5-((1R,2R)-2-amino-3,3-difluorocyclohexylamino)-3-(quinolin-7-ylamino)pyrazine-2-carboxamide], the pIC50 is 7.00 to 8.00.

In the case of `CC[C@@H](Nc1cnc(C(N)=O)c(Nc2cnc3cc(F)ccc3c2)n1)C(N)=O` [Example 233, (R)-5-(1-amino-1-oxobutan-2-ylamino)-3-(7-fluoroquinolin-3-ylamino)pyrazine-2-carboxamide], the pIC50 was 8.00 to 9.00.

As for `NC(=O)c1ncc(N[C@@H]2CCCC[C@@H]2N)nc1Nc1ccc(N2CCOCC2=O)cc1` [Example 442, 5-(((1R,2S)-2-aminocyclohexyl)amino)-3-((4-(3-oxomorpholino)phenyl)amino)pyrazine-2-carboxamide], the negative-log IC50 (pIC50) is 7.00 to 8.00.

In the case of `NC(=O)c1ncc(N[C@@H]2CCCC[C@@H]2N)nc1Nc1cncc(F)c1` [Example 418, 5-(((1R,2S)-2-aminocyclohexyl)amino)-3-((5-fluoropyridin-3-yl)amino)pyrazine-2-carboxamide], the negative logarithm of the IC50 (pIC50) is 8.00 to 9.00.

`C[C@@H](Nc1cnc(C(N)=O)c(Nc2cnc3ccc(F)cc3c2)n1)C(N)=O` [Example 243, (R)-5-(1-amino-1-oxopropan-2-ylamino)-3-(6-fluoroquinolin-3-ylamino)pyrazine-2-carboxamide]: the pIC50 is 8.00 to 9.00.

On to `CCC(=O)N1CCC(c2ccc(Nc3nc(N[C@@H]4CCCC[C@@H]4N)cnc3C(N)=O)cc2)CC1` [Example 438, 5-(((1R,2S)-2-aminocyclohexyl)amino)-3-((4-(1-propionylpiperidin-4-yl)phenyl)amino)pyrazine-2-carboxamide], for which the negative-log IC50 (pIC50) was 8.00 to 9.00.

Consider `NC(=O)c1ncc(N[C@@H]2CCCC(F)(F)[C@@H]2N)nc1Nc1ccc(C2CC2)nc1` [Example 345, 5-((1R,2R)-2-amino-3,3-difluorocyclohexylamino)-3-(6-cyclopropylpyridin-3-ylamino)pyrazine-2-carboxamide], for which the pIC50 is 7.00 to 8.00.

For the molecule `NC(=O)c1ncc(N[C@@H]2CCCC[C@@H]2N)nc1Nc1cccc(-c2ncccn2)c1` [Example 12, 5-((1R,2S)-2-aminocyclohexylamino)-3-(3-(pyrimidin-2-yl)phenylamino)pyrazine-2-carboxamide], the pIC50 is 8.00 to 9.00.

Consider `CC[C@@H](Nc1cnc(C(N)=O)c(Nc2cc(C)ns2)n1)C(N)=O` [Example 373, (R)-5-(1-amino-1-oxobutan-2-ylamino)-3-(3-methylisothiazol-5-ylamino)pyrazine-2-carboxamide], for which the pIC50 was 8.00 to 9.00.

For the molecule `CC[C@@H](Nc1cnc(C(N)=O)c(Nc2cncc(Cl)c2)n1)C(N)=O` [Example 223, (R)-5-(1-amino-1-oxobutan-2-ylamino)-3-(5-chloropyridin-3-ylamino)pyrazine-2-carboxamide], the negative logarithm of the IC50 (pIC50) was 7.00 to 8.00.

`NC(=O)c1ncc(N[C@@H]2CCCC[C@@H]2N)nc1Nc1snc2sccc12` [Example 252, 5-((1R,2S)-2-aminocyclohexylamino)-3-(thieno[2,3-c]isothiazol-3-ylamino)pyrazine-2-carboxamide]: the negative logarithm of the IC50 (pIC50) was more than 9.00.

As to `NC(=O)c1ncc(N[C@@H]2CCCC[C@@H]2N)nc1Nc1snc2ncccc12` [Example 412, 5-((1R,2S)-2-aminocyclohexylamino)-3-(isothiazolo[3,4-b]pyridin-3-ylamino)pyrazine-2-carboxamide], the pIC50 was more than 9.00.

With `NC(=O)c1ncc(N[C@@H]2CCCC[C@@H]2N)nc1Nc1ccc(N2CCCC2)c(C(=O)N2CCCC2)c1` [Example 285, 5-((1R,2S)-2-aminocyclohexylamino)-3-(4-(pyrrolidin-1-yl)-3-(pyrrolidine-1-carbonyl)phenylamino)pyrazine-2-carboxamide], the pIC50 is 6.00 to 7.00.

For the origin of these results see patent US9359308B2, “Pyrazine kinase inhibitors” (Portola Pharmaceuticals, Inc., priority 2011, dated 2016).
